pIC50, pKi: −log10 of the molar value.
Key:
[1] = Microsomal stability assay, human liver microsomes; format: in vitro ADME; details: 37°C, NADPH regenerating system, read-out: T1/2 HLM
Procedure: Test compounds were assessed for microsomal stability by incubating at 37°C in the presence of mouse or human liver microsomes and an NADPH regenerating system as described by Yang et al. ([16]). Microsomal protein content was adjusted to ensure accurate rates of substrate consumption. Analysis was performed by LC-MS/MS analysis.

CYP2C9 = CYP2C9 (Homo sapiens, UniProt P11712); experiment: Cytochrome P450 inhibition assay, 2C9 (fluorescent substrate); format: in vitro ADME; details: expressed enzyme
Sequence of CYP2C9 (P11712 whole entry): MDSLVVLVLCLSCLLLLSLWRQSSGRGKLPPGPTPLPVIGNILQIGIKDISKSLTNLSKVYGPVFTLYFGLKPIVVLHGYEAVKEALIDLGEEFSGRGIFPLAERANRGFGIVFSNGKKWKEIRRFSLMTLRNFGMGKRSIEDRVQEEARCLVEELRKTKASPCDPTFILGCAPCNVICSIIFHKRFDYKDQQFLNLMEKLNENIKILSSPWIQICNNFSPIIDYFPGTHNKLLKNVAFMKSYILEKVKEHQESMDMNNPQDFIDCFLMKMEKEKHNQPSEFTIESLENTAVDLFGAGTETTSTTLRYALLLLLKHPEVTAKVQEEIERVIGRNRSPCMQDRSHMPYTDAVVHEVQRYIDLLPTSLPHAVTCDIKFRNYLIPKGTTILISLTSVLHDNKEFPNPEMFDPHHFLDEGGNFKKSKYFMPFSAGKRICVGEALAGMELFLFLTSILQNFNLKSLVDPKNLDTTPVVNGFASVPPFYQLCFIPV
Procedure: Compounds were assessed for their ability to inhibit human cytochrome P450 3A4 using testosterone as a substrate and LC-MS/MS analysis, whereas the 2D6 and 2C9 assays used fluorescent substrates and EnVision plate reader analysis. Expressed enzymes were used to minimize nonspecific binding and membrane partitioning issues ([15]).

[2] = target: T1, h5-HT7D expressed in U2OS cells (Homo sapiens, UniProt P34969); experiment: 5-HT7 functional assay (cAMP Hunter eXpress GPCR luminescence assay); format: cell-based; details: antagonist, cAMP production stimulated by 150 nM 5-HT (EC80), Cheng-Prusoff
T1 construct: host or cells: U2OS
T1 sequence (P34969 whole entry): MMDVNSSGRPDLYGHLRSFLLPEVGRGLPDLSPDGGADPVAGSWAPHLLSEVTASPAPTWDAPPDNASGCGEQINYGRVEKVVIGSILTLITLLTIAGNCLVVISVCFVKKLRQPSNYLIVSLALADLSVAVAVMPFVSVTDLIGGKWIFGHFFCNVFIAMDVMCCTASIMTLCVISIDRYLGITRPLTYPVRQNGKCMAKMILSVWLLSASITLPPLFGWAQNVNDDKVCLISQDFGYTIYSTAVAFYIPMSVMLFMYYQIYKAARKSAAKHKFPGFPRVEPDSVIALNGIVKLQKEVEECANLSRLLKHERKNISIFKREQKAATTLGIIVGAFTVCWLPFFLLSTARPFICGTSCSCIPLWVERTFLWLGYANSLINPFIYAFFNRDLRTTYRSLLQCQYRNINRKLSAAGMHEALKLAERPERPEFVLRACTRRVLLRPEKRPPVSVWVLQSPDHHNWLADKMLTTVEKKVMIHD
Procedure: The potencies of MC-170073, […], and MC-230079 as 5-HT7 antagonists were determined using the cAMP Hunter eXpress GPCR luminescence assay (DiscoveRx, 95-0163E3) and the manufacturer’s protocol. Cryopreserved U2OS cells expressing h5-HT7D were seeded into 96-well white-walled clear bottom tissue culture-treated plates (31,250 cells/well) and were allowed to recover for 16 h at 37°C in a humidified incubator with 5% CO2. The media was aspirated and replaced with 30-µL cell assay buffer (CAB). Cells were preincubated at 37°C for 15 min with 7.5 µL of 6× final concentration of 5 to 10 concentrations in triplicate of test compounds in CAB. Cells were then stimulated for 30 min at 37°C with 7.5 µL of 900 nM of the full agonist 5-HT in cell assay buffer (final concentration 150 nM; an EC80). cAMP levels/well were determined at room temperature by adding 15 µL of cAMP antibody and 60 µL of cAMP working detection solution, followed by the addition of 60 µL of solution A after 1 h incubation. Luminescence was read 16 h later with an EnVision multilabel plate reader. The IC50 of test compounds was calculated using GraphPad’s Prism 5 (GraphPad Software, La Jolla, CA) nonlinear curve-fitting program. The equilibrium dissociation constant for the competitive antagonists (KB) values was determined using the Cheng-Prusoff equation.

[3] = Mouse in vivo pharmacokinetic studies; design: species or system C57BL/6 male mice; details: for bioavailability / AUC / Cmax / Tmax / clearance / half-life: male; for bioavailability: C57BL/6, mouse, plasma, oral, read-out: %F (oral bioavailability); for AUC / Cmax / Tmax / clearance / half-life: C57BL/6, plasma
Procedure: Adult C57BL/6 male mice (2–4 mo old, body weight ranging from 20 to 25 g, Charles River Laboratories) were maintained under controlled temperature (23 ± 1°C) and lighting (lights on 6:00 AM–6:00 PM) with food and water provided ad libitum. Pharmacokinetic studies were performed either via intravenous bolus infusion or through oral gavage. Mice were administered each compound intravenously by tail vein injection (1 mg/kg) or orally through gavage (5 mg/kg). Serial blood samples were collected at 5, 15, and 30 min and 1, 2, 4, 8, and 24 h after intravenous administration, and at 15, 30 min, and 1, 2, 4, 8, and 24 h after oral gavage administration. All blood samples were centrifuged at 1,500 g for 5 min. Pharmacokinetic study procedures were approved by Temple University’s Institutional Animal Care and Usage Committee and were in accordance with National Institutes of Health (NIH) guidelines. For all in vivo efficacy studies, experiments were approved by the animal ethics committee of McMaster University and conducted under Canadian guidelines for animal research.
Plasma concentrations were determined using an LC-MS/MS method. Briefly, 100-µL acetonitrile with an internal standard solution (Diltiazem, 0.1 μg/mL) was added to 50-µL plasma or tissue homogenate. After being vortexed for 1 min, the mixture was centrifuged at 3,000 g for 5 min. LC-MS/MS analysis was carried out using a high-performance liquid chromatography system consisting of an Agilent 1100 system interfaced to an API4000 SCIEX triple-quadrupole tandem mass spectrometer (Applied Biosystems/MDS Sciex, Foster City, CA). MC-170073, MC-230078, MC-230079, and the internal standard were separated by using a Phenomenex (Torrance, CA) C18 column (2.0 × 50 mm). The mobile phase consisted of solvent A (0.1% formic acid in water) and solvent B (0.1% formic acid in acetonitrile). A linear gradient of solvent B from 5 to 95% was used. The detection and quantification of analytes were performed with the m/z transition 347/191 for MC-170073, MC-230078, and MC-230079, and m/z 415/178 for diltiazem.

[4] = target: 5-HT1A, 5-HT1B, 5-HT1D, 5-HT1E, 5-HT2A, 5-HT2B, 5-HT2C, 5-HT3, 5-HT4, 5-HT5A, and 5-HT6; experiment: Off-target assessment at other 5-HT receptors (PDSP); format: binding; details: 1B, 1D, 1E, 2A, 2B, 2C, 3, 4, 5A, 6
Procedure: In vitro assessments of MC-170073, MC-20078, and MC-230079 activity at the following targets were determined using the assay systems available through the Psychoactive Drug Screening Program (PDSP). Detailed protocols for each assay are available at https://pdsp.unc.edu/pdspweb/?site=assays. Receptors 5-HT1A, 5-HT1B, 5-HT1D, 5-HT1E, 5-HT2A, 5-HT2B, 5-HT2C, 5-HT3, 5-HT5A, 5-HT6, 5-HT7, α1A, α1B, α1D, α2A, α2B, α2C, benzodiazepine, β1, β2, β3, GABA-A, H1, H2, H3, H4, M1, M2, M3, M4, M5, δ-opioid, κ-opioid, and µ-opioid and transporters dopamine, norepinephrine, and serotonin were evaluated.

[5] = 5 mg/kg, 5 mg/kg oral vs 1 mg/kg IV

| half-life [1] | pIC50 (CYP2C9) | Kb [2] | %F (oral bioavailability) ([3]; 5 mg/kg oral vs 1 mg/kg IV) | bioavailability [3, 5] | AUC ([3]; IV, 1 mg/kg) | Cmax ([3]; IV, 1 mg/kg) | Tmax ([3]; IV, 1 mg/kg) | clearance ([3]; IV, 1 mg/kg) | half-life ([3]; IV, 1 mg/kg) | AUC ([3]; oral gavage, 5 mg/kg) | Cmax ([3]; oral gavage, 5 mg/kg) | Tmax ([3]; oral gavage, 5 mg/kg) | half-life ([3]; oral gavage, 5 mg/kg) | CL ([3]; oral gavage, 5 mg/kg) | pKi [4] | SMILES |
| --- | --- | --- | --- | --- | --- | --- | --- | --- | --- | --- | --- | --- | --- | --- | --- | --- |
| > 1 h | < 5.00 | 0.018 µM | 17.5% | 17% | 142 ng·h/mL | 81 ng/mL | 0.25 h | 2.08 mL/min | 4.4 h | 124 ng·h/mL | 49 ng/mL | 0.25 h | 3.4 h | 0.73 L/h | < 5.00 | CCC1(CC)CC(CCN2CCN(c3ccc(O)cc3)CC2)OC1=O (stereo not shown) [MC-170073] |
| 1 h | < 5.00 | 0.021 µM |  | 13.7% | 277 ng·h/mL | 527 ng/mL | 0.083 h | 1.4 mL/min | 3.97 h | 190 ng·h/mL | 123 ng/mL | 0.5 h | 3.78 h | 0.511 L/h | < 5.00 | CCC1(CC)C[C@@H](CCN2CCN(c3ccc(O)cc3)CC2)OC1=O [MC-230078] |

Reference: PMC11550998, “Novel 5-HT7 receptor antagonists modulate intestinal immune responses and reduce severity of colitis” (American Journal of Physiology - Gastrointestinal and Liver …, 2024)
